Measured values taken from PubChem BioAssay (NCI).
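96-well plates; 48 h exposure; 5 concentrations. Endpoints by linear interpolation between flanking doses. Not reached: highest tested concentration assigned. At the TGI there is no net growth.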

Legend:
Assay in all cases: NCI anticancer screen, dose series, 48 h
SNB-78 CNS = system: SNB-78 CNS
LXFL 529 NSCLC = system: LXFL 529 NSCLC
DMS 114 small cell lung = system: DMS 114 small cell lung
M19-MEL melanoma = system: M19-MEL melanoma
DMS 273 small cell lung = system: DMS 273 small cell lung
RXF-631 renal = system: RXF-631 renal
DLD-1 colon = system: DLD-1 colon
HOP-18 NSCLC = system: HOP-18 NSCLC
KM20L2 colon = system: KM20L2 colon

Structure (SMILES)	TGI (SNB-78 CNS) [µM]	TGI (LXFL 529 NSCLC) [µM]	TGI (DMS 114 small cell lung) [µM]	TGI (M19-MEL melanoma) [µM]	TGI (DMS 273 small cell lung) [µM]	TGI (RXF-631 renal) [µM]	TGI (DLD-1 colon) [µM]	TGI (HOP-18 NSCLC) [µM]	TGI (KM20L2 colon) [µM]
O=S1(=O)OCCOS(=O)(=O)C1I	> 100	> 100	> 100	> 100	> 100	> 100	> 100	–	–
CC1=NN(c2ccccc2)C(=O)C1=C1SCCS1	> 100	> 100	> 67.7	> 100	> 100	> 100	> 57.9	> 100	> 100
COc1ccc(N2C(=O)C3c4[nH]c5ccccc5c4C4CCCCCCCCCCC4C3C2=O)cc1 (stereo unspecified)	–	23.7	> 47.5	> 52.2	18.6	–	> 39.9	6.53	11.5
CCOC(=O)/C(=C\c1ccc(O)c(OC)c1)C(=O)c1ccccc1	8.36	> 39.5	–	79.6	–	–	38.2	> 100	> 56.7
C/C(=N\NS(=O)(=O)c1ccc(C)cc1)C(CN1CCOCC1)C(c1ccccc1)c1c(O)c2ccccc2oc1=O (stereo unspecified)	> 100	> 100	–	> 100	–	> 100	> 100	> 100	> 100
CCCN(CCCCC(NC(C)=O)C(=O)NCc1ccccc1)C(=O)N(C)N=O (stereo unspecified)	> 100	> 100	> 100	> 100	> 100	–	> 100	–	> 100
Cc1nc2c(n1CCO)C(=O)c1ccccc1C2=O	> 100	> 100	–	6.6	70.2	–	> 100	–	> 100
C=CCCC(OCOCCOC)c1cc(C)c(O[Si](C)(C)C(C)(C)C)c(C)c1 (stereo unspecified)	> 100	> 100	28	55.3	–	30.4	–	96.4	29
C/C(CC(=O)Nc1ccc(Cl)c(Cl)c1)=N/NC(=O)C[n+]1ccccc1	> 100	> 100	66.1	> 100	> 100	–	–	> 100	> 100
COc1cccc2c1CCc1ccccc1CC2=O	–	> 100	> 100	> 100	> 100	–	> 100	> 100	> 100
COc1c(Cl)c2c(c(OC)c1OC)-c1ccc(OC)c(=O)c(Cl)c1C(NC(C)=O)CC2 (stereo unspecified)	> 100	> 100	1.11	> 28.4	> 100	6.32	> 100	> 100	–
COc1ccc(N2C(=O)C3c4[nH]c5ccc(OC)cc5c4C4CCC(C(C)(C)C)CC4C3C2=O)cc1 (stereo unspecified)	45.3	65.2	> 100	> 100	40.1	–	> 100	> 100	> 100
COC(=O)CCCN(C)c1n[nH]c(N)n1	> 100	> 100	> 100	> 100	> 100	–	> 100	–	> 100
COc1ccc(C[C@@H]2Cc3cc(OC)c(OC)cc3CN2C)cc1	> 100	> 100	–	–	–	–	> 100	–	> 100
CC(=O)c1cccc(NC(=O)/C(=N\NC(C)(C)C)c2c(O)c3ccccc3oc2=O)c1	–	> 100	> 100	> 100	> 100	–	> 100	> 100	> 100
COc1ccc2c(c1)c(=O)c1ccccc1n2/C=C/C(=O)O	> 100	> 100	> 100	–	> 67	–	> 66.2	> 100	> 100
COC(=O)c1ccc(OCc2ccc3nc(OC)c(OC)nc3c2)cc1	> 100	–	> 100	> 100	> 100	–	> 100	> 100	–
CN(C)c1ccc(-c2cc(=O)c3cc4c(cc3[nH]2)OCO4)cc1	–	> 100	> 100	> 100	> 100	> 100	> 100	–	> 100
OC12c3ccccc3C1(N1CCOCC1)CCCCC21OCCCO1 (stereo unspecified)	> 100	> 100	> 100	–	> 100	–	> 100	> 100	> 100
